{"source": "patent US8507276B2", "about": "“Tissue culture media used as a component of cosmetics” (La Prairie Group AG, priority 2003, dated 2013)", "origin": "cited, not measured here", "note": "Like-named read-outs stand apart in the source and are kept apart here.", "data": [{"compound": "Octyl Cocoate [Estol 1540 EHC]", "values": [{"measurement": "Polarity", "setting": "nonpolar lipids", "result": 30.0, "unit": "mN/m"}]}, {"compound": "Propylene Glycol Dicaprylate/Dicaprate [Miglyol 840]", "values": [{"measurement": "Polarity", "setting": "polar lipids", "result": 18.7, "unit": "mN/m"}]}, {"compound": "C12-15 Alkyl Benzoate [Finsolv TN]", "values": [{"measurement": "Polarity", "setting": "medium-polar lipids", "result": 21.8, "unit": "mN/m"}]}, {"compound": "C12-13 Alkyl Lactate [Cosmacol ELI]", "values": [{"measurement": "Polarity", "setting": "polar lipids", "result": 8.8, "unit": "mN/m"}]}, {"compound": "Caprylic/Capric Triglyceride [Miglyol 812]", "values": [{"measurement": "Polarity", "setting": "medium-polar lipids", "result": 21.3, "unit": "mN/m"}]}, {"compound": "Cetearyl Isononanoate [Cetiol SN]", "values": [{"measurement": "Polarity", "setting": "medium-polar lipids", "result": 28.6, "unit": "mN/m"}]}, {"compound": "Decyl Olivate [Lipodermanol OL]", "values": [{"measurement": "Polarity", "setting": "nonpolar lipids", "result": 40.3, "unit": "mN/m"}]}, {"compound": "CCCCCCCCOC(=O)OCCCCCCCC", "note": "[Cetiol CC, Dicarpylyl Carbonate]", "values": [{"measurement": "Polarity", "setting": "nonpolar lipids", "result": 31.7, "unit": "mN/m"}]}]}
